In PubChem BioAssay AID192 (DTP/NCI, 2004):
Where “and” joins values, the source holds several entries; their conditions need not be identical. Equal entries are not always repeated. Inconclusive results and toxic doses are left out.

Tested on: BDF1 mice, B16 melanoma ip, median survival T/C
Test: NCI In Vivo Anticancer Drug Screen. Data for tumor model B16 Melanoma (intraperitoneal) in B6D2F1 (BDF1) mice
Conditions: endpoint: median survival time, higher = longer survival
Protocol: The antitumor activity of compounds was measured in mice bearing transplantable tumors. Survival or tumor size were measured and the results are expressed as the measurement made in the treated group (T) divided by the measurement made in the vehicle treated control group (C). The tumor model used in this assay is B16 Melanoma (intraperitoneal) in B6D2F1 (BDF1) mice

[1] = dose: 0.78 mg/kg/injection, schedule: Q01DX009 (ip), vehicle: saline
[2] = dose: 1.56 mg/kg/injection, schedule: Q01DX009 (ip), vehicle: saline
[3] = dose: 2.0 mg/kg/injection, schedule: Q01DX009 (ip), vehicle: saline
[4] = dose: 3.12 mg/kg/injection, schedule: Q01DX009 (ip), vehicle: saline
[5] = dose: 50.0 mg/kg/injection, schedule: Q01DX009 (ip), vehicle: Klucel (hydroxypropylcellulose) (HPC)
[6] = dose: 100.0 mg/kg/injection, schedule: Q01DX009 (ip), vehicle: Klucel (hydroxypropylcellulose) (HPC)
[7] = dose: 200.0 mg/kg/injection, schedule: Q01DX009 (ip), vehicle: Klucel (hydroxypropylcellulose) (HPC)
[8] = dose: 25.0 mg/kg/injection, schedule: Q01DX009 (ip), vehicle: saline with Tween-80
[9] = dose: 50.0 mg/kg/injection, schedule: Q01DX009 (ip), vehicle: saline with Tween-80
[10] = dose: 100.0 mg/kg/injection, schedule: Q01DX009 (ip), vehicle: saline with Tween-80
[11] = dose: 100.0 mg/kg/injection, schedule: Q04DX003 (ip), vehicle: Klucel (hydroxypropylcellulose) (HPC)

For CCCCCC(O)C1C(=O)OC(C)C(O)/C=C/C=C/C=C/C=C/C=C(\C)C(O)C(O)C(O)CC(O)CC(O)CC(O)CC(O)CC1O (stereo not given), the T/C [1] was 124 % of control, the T/C (dose: 1.0 mg/kg/injection, schedule: Q01DX009 (ip), vehicle: saline) was 116 % of control and the T/C [2] was 119 % of control. The T/C (dose: 1.78 mg/kg/injection, schedule: Q01DX009 (ip), vehicle: saline) was 122 % of control, the T/C [3] was 123 % of control and the T/C [4] was 103 % of control. The T/C (dose: 4.0 mg/kg/injection, schedule: Q01DX009 (ip), vehicle: saline) was 154 % of control.

With O=C1/C(=C\c2ccc([N+](=O)[O-])cc2)CS(=O)(=O)C/C1=C/c1ccc([N+](=O)[O-])cc1 the T/C [5] was 91 % of control, the T/C [6] was 97 % of control and the T/C [7] was 102 % of control.

In the case of C=C1C(=O)OC2CC(C)C3(O)CCC(C)(CC(OC(=O)C(C)C)C12)O3 (stereo not given), the T/C [5] is reported as 99 % of control, the T/C [6] is reported as 97 % of control and the T/C [7] is reported as 98 % of control.

For CCCCOCCN1CCN(CCCN2c3ccccc3Sc3ccc(C(F)(F)F)cc32)CC1, the T/C (dose: 0.29 mg/kg/injection, schedule: Q04DX003 (ip), vehicle: saline) was 89 % of control, the T/C (dose: 0.58 mg/kg/injection, schedule: Q04DX003 (ip), vehicle: saline) was 102 % of control and the T/C [1] was 112 % of control. The T/C (dose: 1.17 mg/kg/injection, schedule: Q04DX003 (ip), vehicle: saline) was 107 % of control, the T/C [2] was 115 % of control and the T/C (dose: 2.34 mg/kg/injection, schedule: Q04DX003 (ip), vehicle: saline) was 89 % of control. The T/C [4] was 107 % of control.

With CC[C@@H](O)C[C@H]1CCC[C@@]2(C[C@@H]3OC(=O)/C=C/[C@@](C)(O)[C@@H](O)[C@H](C)[C@@H](O)[C@H](OC4CCC(N(C)C)C(C)O4)[C@@H](O)[C@](C)(O)CCCCC/C=C/[C@@H]4CC(C)(C)O[C@@]4(O)C[C@H](O2)[C@H]3C)O1 (stereo not given in full) the T/C (dose: 4.0 micrograms/kg/injection, schedule: Q01DX009 (ip), vehicle: saline) was 101 % of control, the T/C (dose: 8.0 micrograms/kg/injection, schedule: Q01DX009 (ip), vehicle: saline) was 97 % of control and the T/C (dose: 16.0 micrograms/kg/injection, schedule: Q01DX009 (ip), vehicle: saline) was 109 % of control. The T/C (dose: 32.0 micrograms/kg/injection, schedule: Q01DX009 (ip), vehicle: saline) was 93 % of control.

With O=c1ccn(C2OC(CO)C(O)C2O)c(=O)[nH]1 (stereo not given) the T/C (dose: 16.0 mg/kg/injection, schedule: Q01DX009 (ip), vehicle: saline) was 100 % of control, the T/C (dose: 32.0 mg/kg/injection, schedule: Q01DX009 (ip), vehicle: Klucel (hydroxypropylcellulose) (HPC)) was 98 % of control and 104 % of control and the T/C (dose: 32.0 mg/kg/injection, schedule: Q01DX009 (ip), vehicle: saline) was 96 % of control and 101 % of control. For the same molecule, the T/C (dose: 64.0 mg/kg/injection, schedule: Q01DX009 (ip), vehicle: Klucel (hydroxypropylcellulose) (HPC)) was 99 % of control and 101 % of control, the T/C (dose: 64.0 mg/kg/injection, schedule: Q01DX009 (ip), vehicle: saline) was 93 % of control and 98 % of control and the T/C (dose: 128.0 mg/kg/injection, schedule: Q01DX009 (ip), vehicle: Klucel (hydroxypropylcellulose) (HPC)) was 103 % of control. The T/C (dose: 128.0 mg/kg/injection, schedule: Q01DX009 (ip), vehicle: saline) was 101 % of control and 114 % of control, the T/C (dose: 256.0 mg/kg/injection, schedule: Q01DX009 (ip), vehicle: Klucel (hydroxypropylcellulose) (HPC)) was 97 % of control and 103 % of control and the T/C (dose: 256.0 mg/kg/injection, schedule: Q01DX009 (ip), vehicle: saline) was 100 % of control and 110 % of control. For the same molecule, the T/C (dose: 512.0 mg/kg/injection, schedule: Q01DX009 (ip), vehicle: Klucel (hydroxypropylcellulose) (HPC)) was 102 % of control and 108 % of control and the T/C (dose: 512.0 mg/kg/injection, schedule: Q01DX009 (ip), vehicle: saline) was 105 % of control.

For C=CS(=O)(=O)c1ccccc1, the T/C (dose: 12.5 mg/kg/injection, schedule: Q01DX009 (ip), vehicle: saline with Tween-80) was 96 % of control, the T/C [8] was 94 % of control and the T/C [9] was 98 % of control.

For CC(C)(C)N1C(=O)N(C(C)(C)C)C1=O, the T/C (dose: 75.0 mg/kg/injection, schedule: Q01DX009 (ip), vehicle: other) was 102 % of control, the T/C (dose: 150.0 mg/kg/injection, schedule: Q01DX009 (ip), vehicle: other) was 105 % of control and the T/C (dose: 300.0 mg/kg/injection, schedule: Q01DX009 (ip), vehicle: other) was 102 % of control.

With CC[C@H]1CN2CCc3cc(OC)c(OC)cc3[C@@H]2C[C@@H]1C[C@H]1NCCc2cc(O)c(OC)cc21 the T/C (dose: 2.0 mg/kg/injection, schedule: Q01DX009 (ip), vehicle: saline + alcohol) was 118 % of control, the T/C [3] was 108 % of control and 120 % of control and the T/C (dose: 8.0 mg/kg/injection, schedule: Q01DX009 (ip), vehicle: saline + alcohol) was 113 % of control. For the same molecule, the T/C (dose: 8.0 mg/kg/injection, schedule: Q04DX003 (ip), vehicle: alkali diluted with saline) was 117 % of control, the T/C (dose: 16.0 mg/kg/injection, schedule: Q04DX003 (ip), vehicle: alkali diluted with saline) was 108 % of control and the T/C (dose: 32.0 mg/kg/injection, schedule: Q04DX003 (ip), vehicle: alkali diluted with saline) was 122 % of control.

With COc1ccc(OC)c(C2N(Cc3ccccc3N(C)C)CCCN2Cc2ccccc2N(C)C)c1 the T/C [8] was 102 % of control, the T/C [9] was 93 % of control and the T/C [10] was 90 % of control.

In the case of CCOC1c2cc(OC)ccc2C(=O)CCN1S(=O)(=O)c1ccc(C)cc1 (stereo not given), the T/C [11] is reported as 93 % of control, the T/C (dose: 200.0 mg/kg/injection, schedule: Q04DX003 (ip), vehicle: Klucel (hydroxypropylcellulose) (HPC)) is reported as 102 % of control and the T/C (dose: 400.0 mg/kg/injection, schedule: Q04DX003 (ip), vehicle: Klucel (hydroxypropylcellulose) (HPC)) is reported as 102 % of control.

With c1cc[c]([Pb]([S]c2nc3ccccc3[nH]2)([c]2ccccc2)[c]2ccccc2)cc1 the T/C (dose: 0.75 mg/kg/injection, schedule: Q01DX009 (ip), vehicle: Klucel (hydroxypropylcellulose) (HPC)) was 100 % of control and the T/C (dose: 1.5 mg/kg/injection, schedule: Q01DX009 (ip), vehicle: Klucel (hydroxypropylcellulose) (HPC)) was 94 % of control.

For C=CCOCC(O)CN1CCC(C)CC1 (stereo not given), the T/C (dose: 25.0 mg/kg/injection, schedule: Q04DX003 (ip), vehicle: Klucel (hydroxypropylcellulose) (HPC)) was 88 % of control, the T/C (dose: 50.0 mg/kg/injection, schedule: Q04DX003 (ip), vehicle: Klucel (hydroxypropylcellulose) (HPC)) was 101 % of control and the T/C [11] was 107 % of control.

For CCCCN(C)/N=N/c1[nH]ncc1C(=O)OCC, the T/C (dose: 78.7 mg/kg/injection, schedule: Q01DX009 (ip), vehicle: carboxymethylcellulose (CMC)) was 109 % of control, the T/C (dose: 118.0 mg/kg/injection, schedule: Q01DX009 (ip), vehicle: carboxymethylcellulose (CMC)) was 118 % of control and the T/C (dose: 177.0 mg/kg/injection, schedule: Q01DX009 (ip), vehicle: carboxymethylcellulose (CMC)) was 118 % of control. The T/C (dose: 266.0 mg/kg/injection, schedule: Q01DX009 (ip), vehicle: carboxymethylcellulose (CMC)) was 109 % of control.

O=C(Nc1ccc(C(=O)Nc2cc(S(=O)(=O)O)cc3cccc(S(=O)(=O)O)c23)cc1)Nc1ccc(C(=O)Nc2cc(S(=O)(=O)O)cc3cccc(S(=O)(=O)O)c23)cc1 was tested, and the T/C [5] was 108 % of control, the T/C [6] was 113 % of control and the T/C [7] was 100 % of control.

With [CH3][Sn]([CH3])([CH3])[O]C(=O)CCl the T/C (dose: 0.02 mg/kg/injection, schedule: Q01DX009 (ip), vehicle: saline) was 104 % of control, the T/C (dose: 0.05 mg/kg/injection, schedule: Q01DX009 (ip), vehicle: saline) was 107 % of control and the T/C (dose: 0.1 mg/kg/injection, schedule: Q01DX009 (ip), vehicle: saline) was 109 % of control. The T/C (dose: 0.19 mg/kg/injection, schedule: Q01DX009 (ip), vehicle: saline) was 104 % of control, the T/C (dose: 0.2 mg/kg/injection, schedule: Q01DX009 (ip), vehicle: saline) was 93 % of control and the T/C (dose: 0.75 mg/kg/injection, schedule: Q01DX009 (ip), vehicle: saline) was 104 % of control.

With CCCCCCCCCCCCCCCCCC(=O)[O][Pb]([CH3])([CH3])[CH3] the T/C (dose: 1.25 mg/kg/injection, schedule: Q01DX009 (ip), vehicle: Klucel (hydroxypropylcellulose) (HPC)) was 99 % of control, the T/C (dose: 2.5 mg/kg/injection, schedule: Q01DX009 (ip), vehicle: Klucel (hydroxypropylcellulose) (HPC)) was 99 % of control and the T/C (dose: 5.0 mg/kg/injection, schedule: Q01DX009 (ip), vehicle: Klucel (hydroxypropylcellulose) (HPC)) was 91 % of control.

For CC1CCCCN1CCNc1ccc(CO)c2sc3ccccc3c(=O)c12 (stereo not given), the T/C [8] was 112 % of control, the T/C [9] was 124 % of control and the T/C [10] was 121 % of control.

For Cc1c[n+]2ccccc2n1C, the T/C [8] was 99 % of control and 100 % of control, the T/C [9] was 94 % of control and 96 % of control and the T/C [10] was 93 % of control and 94 % of control.
